# From patent US6756408B2, “Methods and materials for protecting against myocardial cell damage related to coronary intervention by regional beta blocker therapy” (Board of Regents, The University of Texas System, priority 2001, dated 2004)
# Test system: patients with coronary artery disease undergoing PCI
# Assay: Randomized, double-blind, placebo-controlled trial of intracoronary propranolol before percutaneous coronary intervention
# Assay type: in vivo
# Method: Study population: This study was a randomized, double-blind, placebo-controlled trial. Patients with coronary artery disease undergoing PCI were considered for inclusion. Patients on chronic beta blockers were included. Exclusion criteria included myocardial infarction (“MI”) within 24 h or recent MI with elevation of CK or CKMB at time of randomization (a normal CK and CKMB and elevated troponin T allowed inclusion); cardiogenic shock; systolic blood pressure<100 mm Hg; heart rate<50/min; NYHA class III or IV heart failure; severe left ventricular dysfunction (ejection fraction<30%); severe renal insufficiency (creatinine>3.0 mg/dl); allergy to propranolol; or second planned intervention within 30 days. Patients with chronic obstructive pulmonary disease (“COPD”) were not specifically excluded.
# Study protocol: Before initiation of PCI, all patients were pretreated with aspirin and received weight-adjusted heparin, with a target activated clotting time of >300 seconds in the absence of a glycoprotein IIb/IIIa (“GP IIb/IIIa”) inhibitor and 200-300 seconds with a GP IIb/IIIa inhibitor, which was allowed but not mandated.
# Patients were randomized in a 1:1 ratio to receive either placebo or propranolol. The randomization allocation code was generated using complete block design. Randomization was performed after coronary angiography confirmed the need for PCI. In patients with a total occlusion, the lesion was crossed with a guide wire before randomization.
# Study drug kits were packaged by hospital pharmacy to be indistinguishable from each other with a concentration of 1 mg/ml; the identity of the injectate (i.e., propranolol or placebo) was not known to the investigators or to the patients. […] The study drug was thus delivered directly into the myocardial region supplied by the stenotic coronary artery undergoing PCI. Balloon inflation was performed after the IC injection of propranolol or placebo. Blood samples were taken prior to PCI, immediately after PCI, and every 8 h for 24 h to assay CK and CKMB. Blood samples were taken at 16 h for troponin T analysis. Additional blood levels were obtained when any patient experienced possible ischemic symptoms. The 30-day contact was made by clinic visit or telephone interview.
# Study endpoints: The primary endpoint was the incidence of post-procedural elevation of CKMB above the upper limit of normal (“ULN”). The “threshold” for the development of an excess in adverse events relative to the level of CKMB appears to be a continuous function beginning with any elevation of CKMB or troponin T with the frequency of long-term adverse events, particular death, increasing with the level of enzyme rise (Simoons, which is hereby incorporated by reference). Secondary endpoints included (1) incidence of post-procedure total CK elevation, (2) incidence of troponin T elevation (in those patients with normal baseline values), (3) median peak values of CK, CKMB, and troponin T, (4) rescue therapy with GP IIb/IIIa inhibitors, and (5) combination of death from any cause, myocardial necrosis, recurrent MI within 30 days, or severe myocardial ischemia requiring urgent coronary-artery bypass surgery or target lesion revascularisation (“TLR”) within 30 days of intervention (“MACE”).
# Urgent target lesion revascularisation included any coronary artery bypass graft surgery or a second PCI on the original target lesion performed for recurrent myocardial ischemia. Successful PCI was defined as post-procedure residual stenosis at the target lesion<30% of reference vessel diameter without major adverse outcome (death, Q wave MI, emergent CABG). Major bleeding was defined as bleeding requiring transfusion, surgery, prolongation of hospital stay, or >8% drop in hematocrit after PCI. Rescue GP IIb/IIIa use was defined as drug given after the guide wire passage during PCI.
# [1] = patients with mechanical complications, n = 17
# [2] = patients with no mechanical complication, n = 58
smiles,measurement,setting,value
"CC(C)NCC(O)COc1cccc2ccccc12 (stereo not shown) [Propranolol, propranolol]",Change in heart rate or blood pressure after IC injection,15 μg/kg intracoronary,no change
same,Incidence of elevation of CKMB (>5 ng/ml) after PCI,0.015 mg/kg,17%
same,Incidence of elevation of Troponin T (>0.10 ng/ml) after PCI,"0.015 mg/kg, 16 h",13%
same,Death,"30 days after PCI, n = 75",0%
same,Recurrent MI,"30 days after PCI, n = 75",1%
same,Urgent/emergent TLR,"30 days after PCI, n = 75",0%
same,Significant bleeding,after PCI,3%
same,Combined 30d MACE,"death, myocardial necrosis, recurrent MI, urgent TLR within 30 days, n = 75",18%
same,"""Rescue"" GP IIb/IIIa inhibitors use required",drug given after guide wire passage during PCI,11%
same,Adverse systemic effects after IC injection,including respiratory difficulties in 5 patients with history of COPD or asthma,no adverse systemic effects
same,"Heart rate, post drug","largest change after drug administration, baseline 67 ± 11",66 ± 11 beats/min
same,"Systolic BP, post drug","largest change after drug administration, baseline 139 ± 25",137 ± 23 mmHg
same,CKMB elevation ≧3 times upper limit of normal,number of patients out of 75,7 patients
same,Elevation of CK (% of patients),[1],18%
same,Elevation of CKMB (% of patients),[1],41%
same,Elevation of troponin T (% of patients),[1],35%
same,Elevation of CK (% of patients),[2],0%
same,Elevation of CKMB (% of patients),[2],10%
same,Elevation of troponin T (% of patients),[2],5%
same,Median value of CKMB,"post PCI, all patients",2.1
same,Median value of total CK,"post PCI, all patients",67
same,Median value of troponin T,"post PCI, all patients",0.03
same,"Favorable effect on preventing myocardial necrosis, subgroup analysis","relative risk by subgroups, FIG. 3",broadly applicable
same,Recurrent MI (number of patients),within 30 days,1 patients
same,Urgent TLR required (number of patients),within 30 days,0 patients
